The source of these data is the supplement of paper PMC11208160.

This series in a line: recombinant barcode read abundance after kanamycin selection (control-corrected) (log10(CPM+1)); higher = more efficient recombination; sequences stand for … in AGTGCAGAGAAAATCGGCCAGTTTTCTCTGCCTGCAGTCCGCATGCCGT…AGATTTATGCAGCGGACTGCCTTTCTCCCAAAGTGATAAACCGGACAGTATCATGGACCGGTTTTCCCGGTAATCCGTATTTGCAAGGTTGGTTTCACT; site = the 11-nt target. Summed up:
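For this pooled screen, each oligo contained a promoter, a target, a barcode and the J23119-driven first 104 bases of the bridge RNA. Gibson cloning placed it into a vector supplying the remaining 73 bp and a T7-inducible recombinase, and the pool was co-electroporated into E. coli with a donor plasmid. Recombination efficiency is derived from barcode counts per million at recombinant junctions after averaging and control correction, and is expressed on a log scale as log10(CPM+1), with selection on chloramphenicol/ampicillin/kanamycin plus 0.1 mM IPTG against a chloramphenicol/ampicillin LB agar control.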
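Note: IS621 recombinase and bridge RNA in Escherichia coli cells.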

Turning to “CGAGCTCCTTGGGTTCTAACCTGTTGCCT (site CGAGCTCCTAA)”, the “recombinant barcode read abundance (log10)” value was determined as 0.763.
For the sequence “CGAGCTCCTTGGGTTCTAACCTGTTGCCT (site CGAGCTCCTAC)”, the “recombinant barcode read abundance (log10)” value came out at 0.582.
As for “CGAGCTCCTTGGGTTCTAACCTGTTGCCT (site CGAGCTCCTAG)”, the “recombinant barcode read abundance (log10)” value came out at 1.24.
As for “CGAGCTCCTTGGGTTCTAACCTGTTGCCT (site CGAGCTCCTAT)”, the “recombinant barcode read abundance (log10)” value was determined as 0.157.
Turning to “CGAGGCCCTTGGGTTCTAACCTGTTGCTT (site CGAGGCCCTAA)”, the “recombinant barcode read abundance (log10)” value turned out to be 1.93.
For the sequence “CGAGGCCCTTGGGTTCTAACCTGTTGCTT (site GTCCTATCTGT)”, the “recombinant barcode read abundance (log10)” value was determined as 0.0488.
For the sequence “CGAGTGACTTGGGTTCTAACCTGTTGCCA (site CGAGTGACTTG)”, the “recombinant barcode read abundance (log10)” value was 0.906.
As for “CGAGTGACTTGGGTTCTAACCTGTTGCCA (site TTCCGTCCTAA)”, the “recombinant barcode read abundance (log10)” value is 0.382.
Next, “CGATCGACTTGGGTTCTAACCTGTTGCAG (site CGACCGACTCT)”: 0.401; “CGATCGACTTGGGTTCTAACCTGTTGCAG (site CGATCGACTCT)”: 0.809; “CGATCGCCTTGGGTTCTAACCTGTTGCCT (site CGATCGCCTAG)”: 0.339.
Next, “CGATCGCCTTGGGTTCTAACCTGTTGCCT (site GGACCGCCTAG)”: 0.0952.
For “CGATGTGCTTGGGTTCTAACCTGTTGCCT (site CGATGTCCTAG)”, the “recombinant barcode read abundance (log10)” value worked out at 0.334.
On to “CGATGTGCTTGGGTTCTAACCTGTTGCCT (site CGATGTGCTAG)”, for which the “recombinant barcode read abundance (log10)” value amounted to 0.535.
Turning to “CGATTTCCTTGGGTTCTAACCTGTTGCAT (site CGATTTCCTAG)”, the “recombinant barcode read abundance (log10)” value is 0.
Turning to “CGATTTCCTTGGGTTCTAACCTGTTGCAT (site CGATTTCCTAT)”, the “recombinant barcode read abundance (log10)” value is 0.0511.
For the sequence “CGCCATCCTTGGGTTCTAACCTGTTGCAT (site CGCCATCCTAT)”, the “recombinant barcode read abundance (log10)” value came out at 0.134.
Next, “CGCCATCCTTGGGTTCTAACCTGTTGCAT (site CGCCCTCCTAT)”: 0.227.
“CGCCATCCTTGGGTTCTAACCTGTTGCAT (site CGCCGTCCTAT)”: the “recombinant barcode read abundance (log10)” value came to 0.0349.
For the sequence “CGCCATCCTTGGGTTCTAACCTGTTGCAT (site CGCCTTCCTAT)”, the “recombinant barcode read abundance (log10)” value was 0.569.
“CGCCCACCTTGGGTTCTAACCTGTTGCCT (site CGCCCACCTAG)”: the “recombinant barcode read abundance (log10)” value came out at 0.0145.
To “CGCCCACCTTGGGTTCTAACCTGTTGCCT (site CTCCAACCTAG)” belongs 0; to “CGCCCTACTTGGGTTCTAACCTGTTGCCT (site CGACCTGCTAG)”, 0.236; to “CGCCCTACTTGGGTTCTAACCTGTTGCCT (site CGCCCTACTAG)”, 0.239.
As to “CGCCGTCCTTGGGTTCTAACCTGTTGCAT (site CGCCATCCTAT)”, the “recombinant barcode read abundance (log10)” value was 0.0426.
To “CGCCGTCCTTGGGTTCTAACCTGTTGCAT (site CGCCCTCCTAT)” belongs 0.103.
For the sequence “CGCCGTCCTTGGGTTCTAACCTGTTGCAT (site CGCCGTCCTAT)”, the “recombinant barcode read abundance (log10)” value was found to be 0.279.
Next, “CGCCGTCCTTGGGTTCTAACCTGTTGCAT (site CGCCTTCCTAT)”: 0.099; “CGCCTAGCTTGGGTTCTAACCTGTTGCCT (site CGCCTAGCTAG)”: 0.206.
Consider “CGCCTAGCTTGGGTTCTAACCTGTTGCCT (site CTCCTACCTAG)”, for which the “recombinant barcode read abundance (log10)” value was 0.0925.
With “CGCCTCCCTTGGGTTCTAACCTGTTGCCT (site CGCCTCACTAG)”, the “recombinant barcode read abundance (log10)” value worked out at 0.179.
Consider “CGCCTCCCTTGGGTTCTAACCTGTTGCCT (site CGCCTCCCTAG)”, for which the “recombinant barcode read abundance (log10)” value was found to be 0.446.
As for “CGCCTCCCTTGGGTTCTAACCTGTTGCCT (site CGCCTCGCTAG)”, the “recombinant barcode read abundance (log10)” value stood at 0.
With “CGCCTCCCTTGGGTTCTAACCTGTTGCCT (site CGCCTCTCTAG)”, the “recombinant barcode read abundance (log10)” value was found to be 0.0882.
Regarding “CGCCTCGCTTGGGTTCTAACCTGTTGCCT (site CGCCTCACTAG)”, the “recombinant barcode read abundance (log10)” value amounted to 0.07.
Take “CGCCTCGCTTGGGTTCTAACCTGTTGCCT (site CGCCTCCCTAG)”: the “recombinant barcode read abundance (log10)” value was found to be 0.16.
Take “CGCCTCGCTTGGGTTCTAACCTGTTGCCT (site CGCCTCGCTAG)”: the “recombinant barcode read abundance (log10)” value worked out at 0.0366.
Consider “CGCCTCGCTTGGGTTCTAACCTGTTGCCT (site CGCCTCTCTAG)”, for which the “recombinant barcode read abundance (log10)” value came out at 0.259.
For “CGCGATCCTTGGGTTCTAACCTGTTGCCT (site CGCGATCCTAG)”, the “recombinant barcode read abundance (log10)” value worked out at 0.431.
To “CGCGATCCTTGGGTTCTAACCTGTTGCCT (site CGCGCTCCTAG)” belongs 0.0201; to “CGCGATCCTTGGGTTCTAACCTGTTGCCT (site CGCGGTCCTAG)”, 0.468; to “CGCGATCCTTGGGTTCTAACCTGTTGCCT (site CGCGTTCCTAG)”, 0.265.
Take “CGCGCAACTTGGGTTCTAACCTGTTGCCT (site CGCGCAACTAG)”: the “recombinant barcode read abundance (log10)” value turned out to be 0.0454.
On to “CGCGCAACTTGGGTTCTAACCTGTTGCCT (site CGCGTAACTAG)”, for which the “recombinant barcode read abundance (log10)” value came to 0.185.
Take “CGCGGGTCTTGGGTTCTAACCTGTTGCTT (site CGCGAATCTAA)”: the “recombinant barcode read abundance (log10)” value amounted to 0.236.
Turning to “CGCGGGTCTTGGGTTCTAACCTGTTGCTT (site CGCGGGTCTAA)”, the “recombinant barcode read abundance (log10)” value is 0.88.
In the case of “CGCGTTCCTTGGGTTCTAACCTGTTGCCT (site CGCGATCCTAG)”, the “recombinant barcode read abundance (log10)” value came out at 0.262.
In the case of “CGCGTTCCTTGGGTTCTAACCTGTTGCCT (site CGCGCTCCTAG)”, the “recombinant barcode read abundance (log10)” value is 0.608.
“CGCGTTCCTTGGGTTCTAACCTGTTGCCT (site CGCGGTCCTAG)”: the “recombinant barcode read abundance (log10)” value was found to be 0.542.
Consider “CGCGTTCCTTGGGTTCTAACCTGTTGCCT (site CGCGTTCCTAG)”, for which the “recombinant barcode read abundance (log10)” value turned out to be 0.197.
For the sequence “CGCTGACCTTGGGTTCTAACCTGTTGCTT (site CGCTGACCTAA)”, the “recombinant barcode read abundance (log10)” value stood at 0.0663.
With “CGCTGACCTTGGGTTCTAACCTGTTGCTT (site CGCTGCCCTAA)”, the “recombinant barcode read abundance (log10)” value worked out at 0.208.
To “CGCTGACCTTGGGTTCTAACCTGTTGCTT (site CGCTGGCCTAA)” belongs 0.116.
For the sequence “CGCTGACCTTGGGTTCTAACCTGTTGCTT (site CGCTGTCCTAA)”, the “recombinant barcode read abundance (log10)” value was found to be 0.231.
Take “CGCTGGTCTTGGGTTCTAACCTGTTGCCT (site CGCTAGTCTAG)”: the “recombinant barcode read abundance (log10)” value came out at 0.309.
On to “CGCTGGTCTTGGGTTCTAACCTGTTGCCT (site CGCTCGTCTAG)”, for which the “recombinant barcode read abundance (log10)” value stood at 0.145.
To “CGCTGGTCTTGGGTTCTAACCTGTTGCCT (site CGCTGGTCTAG)” belongs 0.0358; to “CGCTGGTCTTGGGTTCTAACCTGTTGCCT (site CGCTTGTCTAG)”, 0.111.
To “CGCTTGTCTTGGGTTCTAACCTGTTGCTT (site CACTTGACTAA)” belongs 0.0517.
